Earlier results as cited in patent US6071925A (priority 1997, dated 2000).

What was measured:
LC 132 receptor = settings: CHO(LC 132+) cells in culture
mice [1] = settings: intra-cerebroventricular
mice [2] = settings: intra-cerebroventricular; remark: listed apart in the source

## OFQ: seventeen amino-acid-long peptide (F-G-G-F-T-G-A-R-K-S-A-R-K-L-A-N-Q), natural ligand for the G-protein coupled receptor OFQ-R
LC 132 receptor
  effect on adenylate cyclase: inhibits adenylate cyclase
Mice [1]
  effect on nociception: induces hyperalgesia
Mice [2]
  effect on locomotive activity: slowed down locomotive activity
